Experimental data: patent US6894068B2, “Substituted benzimidazoles as non-nucleoside inhibitors of reverse transcriptase” (The United States of America as represented by the …, priority 1997, dated 2005)
Read-outs that look alike come from different tables or passages of the source.

Tests used:
[1] = biological target: HIV-1 WT RT (Human immunodeficiency virus type 1 group M subtype B, UniProt P03366); assay: biochemical; format: biochemical; settings: for inhibition at 1 µM: read-out: % inhibn (1 μM)
[2] = tested on: HIV-1 isolate 4xAZT/Y181C; assay: Cytopathic cell killing assay, MT-4 cells, isolate 4xAZT/Y181C; format: cell-based
From the text: (§1) The various HIV isolates tested in the Figures are those corresponding to wild-type virus (NL4-3) and the other strains listed by their RT mutations. The three 4×AZT isolates included in the Figures represent AZT drug-resistant variants. For example, the 4×AZT/L100I isolate has five mutations: four mutations confer increased resistance to AZT, and the other mutation is located within the NNRTI binding pocket. TZB and nevir. (nevirapine) are two well-known NNRTIs, included in this experiment for comparison purposes.
(§2) In this Example, the antiviral and cellular toxicity of NNRTIs was investigated, using the cytopathic cell killing assay described by Yang (Yang et al., “Characteristics of a Group of Non-nucleoside Reverse Transcriptase Inhibitors with Structural Diversity and Potent Anti-Human Immunodeficiency Virus Activity,” Leukemia 9:S75-S85 [1995]). Briefly, in this method cells (e.g., the CEM-SS cell line, available from the NIAID AIDS Research and Reference Program [ARRRP]) were seeded at a density of 5×10^3 cells/well, into the wells of a 96-well microtiter plate. The cells were then infected with HIV virus (either mutant or WT), at a multiplicity of infection (MOI) previously determined to provide complete cell killing by 6 days of culture post-infection (e.g., MOI of 0.01-0.05). Each of the HIV isolates was pre-titered to induce equivalent levels of infection based on cell killing or virus production, prior to their use in these assays. A range of test compound concentrations was added to the wells in triplicate (e.g., serial half-log dilutions) to evaluate inhibition of HIV infection. Controls for each assay included drug controls (drug colorimetric control wells), drug cytotoxicity control wells (cells with drug), virus control wells (cells with virus), and cell viability controls (cells only). Positive control drugs (e.g. AZT and ddC) were also run in parallel.
(§3) After six days of incubation at 37° C., cell viability was determined spectrophotometrically at 450 nm for each well, using the metabolic reduction of XTT to a soluble colored formazan. (See, Gartner and Popovic, “Virus Isolation and Production, in Aldovini and Walker (eds.), Techniques in HIV Research, Stockton Press, NY, pp. […] [1991]; and Nara and Fischinger, “Quantitative Infectivity Assay for HIV-1 and HIV-2, ” Nature 332:469-470 [1988]).
(§4) The in vitro therapeutic index (TI50) was defined as the fold-difference between the EC50 and IC50. The results for the various compounds are included in FIGS. 8 and 19.

[3] = tested on: HIV-1 WT virus (NL4-3); assay: microbe, parasite or virus in culture; format: cell-based; settings: for EC50: Human immunodeficiency virus 1, NL43, CEM-SS, read-out: EC50
Experimental: Evaluation of these compounds for the inhibition of HIV-1 was determined as the fifty percent cell culture inhibitory concentration (CIC50) in CEMSS cell culture with WT virus (NL4-3).
as §2, §3, §4

[4] = tested on: HIV-1 isolate V179D; assay: Cytopathic cell killing assay, MT-4 cells, isolate V179D; format: cell-based; settings: Human immunodeficiency virus 1, MT4, read-out: EC50, isolate V179D, Table 8; MT-4 cells
From the text: as §1, §2, §3, §4

[5] = tested on: WT and HIV-1 variants containing amino acid substitutions in RT; format: cell-based; settings: for cross-resistance profile, result in words: cytopathic cell killing assay, NNRTI-resistant HIV isolates
From the text: In these Tables, antiviral data are reported as the quantity of drug in μM required to reduce cell killing or virus production by 50% (EC50). The various HIV isolates tested in the Figures are those corresponding to wild-type virus (NL4-3) and the other strains listed by their RT mutations. The three 4×AZT isolates included in the Figures represent AZT drug-resistant variants.
Briefly, in this method cells (e.g., the CEM-SS cell line, available from the NIAID AIDS Research and Reference Program [ARRRP]) were seeded at a density of 5×10^3 cells/well, into the wells of a 96-well microtiter plate. The cells were then infected with HIV virus (either mutant or WT), at a multiplicity of infection (MOI) previously determined to provide complete cell killing by 6 days of culture post-infection (e.g., MOI of 0.01-0.05). Each of the HIV isolates was pre-titered to induce equivalent levels of infection based on cell killing or virus production, prior to their use in these assays. A range of test compound concentrations was added to the wells in triplicate (e.g., serial half-log dilutions) to evaluate inhibition of HIV infection. Controls for each assay included drug controls (drug colorimetric control wells), drug cytotoxicity control wells (cells with drug), virus control wells (cells with virus), and cell viability controls (cells only). Positive control drugs (e.g. AZT and ddC) were also run in parallel.
as §3
Antiviral and toxicity data were reported as the quantity of drug required to inhibit 50% of virus-induced cell killing or virus production (EC50), and the quantity of drug required to […] (IC50). The in vitro therapeutic index (TI50) was defined as the fold-difference between the EC50 and IC50.

[6] = tested on: HIV-1 isolate L74V; assay: Cytopathic cell killing assay, MT-4 cells, isolate L74V; format: cell-based; settings: Human immunodeficiency virus 1, MT4, read-out: EC50, isolate L74V, Table 8; MT-4 cells
From the text: as §1, §2, §3, §4

[7] = tested on: HIV-1 isolate V106A; assay: Cytopathic cell killing assay, MT-4 cells, isolate V106A; format: cell-based; settings: Human immunodeficiency virus 1, MT4, read-out: EC50, isolate V106A, Table 8; MT-4 cells
From the text: as §1
In this Example, the antiviral and cellular toxicity of NNRTIs was investigated, using the cytopathic cell killing assay described by Yang (Yang et al., “Characteristics of a Group of Non-nucleoside Reverse Transcriptase Inhibitors with Structural Diversity and Potent Anti-Human Immunodeficiency Virus Activity,” Leukemia 9:S75-S85 [1995]). Briefly, in this method cells (e.g., the CEM-SS cell line, available from the NIAID AIDS Research and Reference Program [ARRRP]) were seeded at a density of 5×10^3 cells/well, into the wells of a 96-well microtiter plate. The cells were then infected with HIV virus (either mutant or WT), at a multiplicity of infection (MOI) previously determined to provide complete cell killing by 6 days of culture post-infection (e.g., MOI of 0.01-0.05). Each of the HIV isolates was pre-titered to induce equivalent levels of infection based on cell killing or virus production, prior to their use in these assays. A range of test compound concentrations was added to the wells in triplicate (e.g., serial half-log dilutions) to evaluate inhibition of HIV infection. […]
After six days of incubation at 37° C., cell viability was determined spectrophotometrically at 450 nm for each well, using the metabolic reduction of XTT to a soluble colored formazan. (See, Gartner and Popovic, “Virus Isolation and Production, in Aldovini and Walker (eds.), Techniques in HIV Research, Stockton Press, NY, pp. […] [1991]; and Nara and Fischinger, “Quantitative Infectivity Assay for HIV-1 and HIV-2, ” Nature 332:469-470 [1988]). […]

[8] = tested on: HIV-1 NL4-3 (WT); assay: Cytopathic cell killing assay, MT-4 cells, isolate NL4-3 (WT); format: cell-based
From the text: as §1, §2, §3, §4

[9] = tested on: HIV-1 isolate Y181C; assay: Cytopathic cell killing assay, MT-4 cells, isolate Y181C; format: cell-based
From the text: as §1, §2, §3, §4

[10] = tested on: HIV-1 isolate K103N; assay: Cytopathic cell killing assay, MT-4 cells, isolate K103N; format: cell-based
From the text: as §1, §2, §3, §4

[11] = tested on: HIV-1 isolate V108I; assay: Cytopathic cell killing assay, MT-4 cells, isolate V108I; format: cell-based; settings: MT-4 cells
From the text: as §1, §2, §3, §4

[12] = tested on: HIV-1 isolate A98G; assay: Cytopathic cell killing assay, MT-4 cells, isolate A98G; format: cell-based; settings: Human immunodeficiency virus 1, MT4, read-out: EC50, isolate A98G, Table 8; MT-4 cells
From the text: as §1, §2, §3, §4

[13] = tested on: HIV-1 isolate L100I; assay: Cytopathic cell killing assay, MT-4 cells, isolate L100I; format: cell-based
From the text: as §1, §2, §3, §4

[14] = tested on: HIV-1 isolate Y188C; assay: Cytopathic cell killing assay, MT-4 cells, isolate Y188C; format: cell-based
From the text: as §1, §2, §3, §4

[15] = tested on: HIV-1 isolate K101E; assay: Cytopathic cell killing assay, MT-4 cells, isolate K101E; format: cell-based; settings: MT-4 cells
From the text: as §1, §2, §3, §4

[16] = tested on: HIV-1 isolate Y188H; assay: Cytopathic cell killing assay, isolate Y188H; format: cell-based; settings: Human immunodeficiency virus 1, read-out: EC50, isolate Y188H
From the text: as §1, §2, §3, §4

[17] = Table 11, CEMSS/NL4-3, NRVC = no reduction in viral CPE
[18] = Table 7, 1 μM drug, WT HIV-1 RT
[19] = Table 7, drug concentration required to reduce cell killing or virus production by 50%, WT

SMILES: Fc1cccc(F)c1Cn1c(-c2c(F)cccc2F)nc2ccccc21 [Compound 26, 1-(2,6-difluorobenzyl)-2-(2,6-difluorophenyl)benzimidazole]
- inhibition at 1 µM ([1]; Table 5, 1 μM drug, WT HIV-1 RT, average of two experiments done in triplicates): 50%
- RT inhibition, result in words ([1]; WT RT): four-fold increase in inhibitory activity
- EC50 ([2]; Human immunodeficiency virus 1, MT4, read-out: EC50, isolate 4XAZT/Y181C): > 20 µM
- EC50 [3, 17]: 1.7 µM

SMILES: CC(=O)Nc1cccc2c1nc(-c1c(F)cccc1F)n2Cc1c(F)cccc1F [Compound 3600, 1-(2,6-difluorobenzyl)-2-(2,6-difluorophenyl)-4-acetamidobenzimidazole]
- IC50 [1]: 54.7 µM
- inhibition at 1 µM [1, 18]: 24%
- melting point: 194 to 195 °C
- EC50 [4]: 1.7 µM
- cross-resistance profile, result in words [5]: inhibit HIV-1 better than TZB
- EC50 [6]: 1.2 µM
- EC50 [7]: > 20 µM
- EC50 ([8]; Human immunodeficiency virus 1, NL43, MT4, Table 8, MT-4 cells, read-out: EC50, isolate NL4-3): 1.6 µM
- EC50 ([8]; Human immunodeficiency virus 1, NL43, MT4, Table 10, values in μM, read-out: EC50, isolate NL4-3 (WT)): 1.97 µM
- EC50 ([9]; Human immunodeficiency virus 1, MT4, read-out: EC50, isolate Y181C, Table 8, MT-4 cells): > 10 µM
- EC50 ([9]; Human immunodeficiency virus 1, MT4, read-out: EC50, isolate Y181C, Table 10, values in μM): > 100 µM
- EC50 ([10]; Human immunodeficiency virus 1, MT4, read-out: EC50, isolate K103N, Table 8, MT-4 cells): > 20 µM
- EC50 ([10]; Human immunodeficiency virus 1, MT4, read-out: EC50, isolate K103N, Table 10, values in μM): > 100 µM
- EC50 [3, 19]: 1.48 µM
- EC50 ([11]; Human immunodeficiency virus 1, MT4, read-out: EC50, isolate V1081, Table 8): 5.3 µM
- EC50 [12]: 4.3 µM
- EC50 ([13]; Human immunodeficiency virus 1, MT4, read-out: EC50, isolate L100I, Table 10, values in μM): 3.25 µM
- EC50 ([13]; Human immunodeficiency virus 1, MT4, read-out: EC50, isolate L1001, Table 8, MT-4 cells): 2.1 µM
- EC50 ([14]; Human immunodeficiency virus 1, MT4, read-out: EC50, isolate Y188C, Table 8, MT-4 cells): > 10 µM
- EC50 ([15]; Human immunodeficiency virus 1, MT4, read-out: EC50, isolate K101E, Table 8): > 20 µM

SMILES: O=[N+]([O-])c1cccc2c1nc(-c1c(F)cccc1F)n2Cc1c(F)cccc1F [Compound 3100, 1-(2,6-difluorobenzyl)-2-(2,6-difluorophenyl)-4-nitrobenzimidazole]
- melting point: 169 °C
- EC50 [3, 19]: 2.4 µM
- EC50 [16]: > 50 µM

SMILES: Cc1cccc2c1nc(-c1c(F)cccc1F)n2Cc1c(F)cccc1F [Compound 33, 1-(2,6-difluorobenzyl)-2-(2,6-difluorophenyl)-4-methylbenzimidazole]
- melting point: 182 to 186 °C
- fold better in the inhibition of the various viral isolates than des-methyl analog 26 ([5]; Table 4 isolates): 3- to 4 fold
- EC50 ([2]; read-out: EC50, isolate 4XAZT/Y181C, Table 9, MT-4 cells): 3.5 µM
- EC50 ([9]; Human immunodeficiency virus 1, MT4, read-out: EC50, isolate Y181C, Table 9, MT-4 cells): 4.3 µM
- EC50 ([10]; Human immunodeficiency virus 1, MT4, read-out: EC50, isolate K103N, Table 4, MT-4 cells): 8.1 µM
- cytotoxicity and anti-viral effect, summary graph, result in words ([3]; FIGS. 10-12): very effective therapeutic dose
- EC50 [3, 19]: 0.44 µM
- EC50 [3, 17]: 0.44 µM
- therapeutic index at 50% (TC50) ([3]; difference between efficacy of the drug and cellular toxicity, FIG. 10): greater than one log in concentration
- EC50 ([11]; Human immunodeficiency virus 1, MT4, read-out: EC50, isolate V108I, Table 4): 2.8 µM
- EC50 ([14]; Human immunodeficiency virus 1, MT4, read-out: EC50, isolate Y188C, Table 4, MT-4 cells): 2.3 µM
- EC50 ([14]; Human immunodeficiency virus 1, MT4, read-out: EC50, isolate Y188C, Table 10, values in μM): 2.3 µM
- EC50 ([15]; Human immunodeficiency virus 1, MT4, read-out: EC50, isolate K101E, Table 4): 16.7 µM

SMILES: CC(=O)N(C)c1cccc2c1nc(-c1c(F)cccc1F)n2Cc1c(F)cccc1F [Compound 5011, 1-(2,6-difluorobenzyl)-2-(2,6-difluorophenyl)-4-(N-methylacetamido)benzimidazole]
- IC50 [1]: 0.32 µM
- % inhibn (1 μM) [1, 18]: 77%
- melting point: 155 to 156 °C
- cross-resistance profile, result in words ([5]; listed as N-methyl acetamido): inhibit HIV-1 better than TZB
- cross-resistance profile, result in words ([5]; listed as N-methylacetamido): equal or better against the various variants than nevirapine
- EC50 [3, 19]: 0.02 µM
- EC50 ([3]; text b130, cytopathic cell killing assay, WT): 0.02 µM
- fold more potent than the 4-methyl or 4-amino compounds (EC50) ([3]; cytopathic cell killing assay): 20 fold
- EC50 [12]: 0.1 µM
